Measured values as given in ChEMBL document CHEMBL5385882, “Rational design and appraisal of selective Cdc2-Like kinase 1 (Clk1) inhibitors as novel autophagy inducers for the treatment of acute liver injury (ALI)” (Eur J Med Chem, 2023).
Activity calls are given as the source filed them. No cut-off for these calls is given here.

Columns and labels:
[1] = biological target: T1, Dual specificity protein kinase CLK1 (Homo sapiens, UniProt P49759); assay: Inhibition of human 130-end recombinant CLK1 assessed as remaining activity using ERMRPRKRQGSVR as substrate at 100 nM by [gamma-32P]ATP binding based scintillation counting based analysis relative to control
Target sequence in this assay (P49759 whole entry, looked up): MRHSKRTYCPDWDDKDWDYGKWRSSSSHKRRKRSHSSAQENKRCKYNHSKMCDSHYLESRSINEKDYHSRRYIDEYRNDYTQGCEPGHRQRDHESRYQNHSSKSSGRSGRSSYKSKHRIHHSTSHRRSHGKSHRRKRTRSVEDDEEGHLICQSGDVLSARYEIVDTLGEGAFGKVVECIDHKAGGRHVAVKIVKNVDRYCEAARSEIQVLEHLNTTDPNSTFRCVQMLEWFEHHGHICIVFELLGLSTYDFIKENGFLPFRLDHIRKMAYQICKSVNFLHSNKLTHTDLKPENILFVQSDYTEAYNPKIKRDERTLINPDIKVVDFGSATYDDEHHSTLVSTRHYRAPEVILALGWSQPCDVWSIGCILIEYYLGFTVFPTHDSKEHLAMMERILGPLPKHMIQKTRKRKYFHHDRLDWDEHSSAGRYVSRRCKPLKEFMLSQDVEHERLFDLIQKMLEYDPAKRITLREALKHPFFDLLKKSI

[2] = biological target: T2, Dual specificity tyrosine-phosphorylation-regulated kinase 1A (Homo sapiens, UniProt Q13627); assay: Inhibition of human full length recombinant DYRK1A assessed as remaining activity using RRRFRPASPLRGPP as substrate at 100 nM by [gamma-32P]ATP binding based scintillation counting based analysis relative to control
[3] = biological target: T1, Dual specificity protein kinase CLK1; assay: Inhibition of human 130-end recombinant CLK1 assessed as remaining activity using ERMRPRKRQGSVR as substrate by [gamma-32P]ATP binding based scintillation counting based analysis
Target sequence in this assay (P49759 whole entry): as the sequence (P49759 whole entry, looked up) above

[4] = biological target: T2, Dual specificity tyrosine-phosphorylation-regulated kinase 1A; assay: Inhibition of human full length recombinant DYRK1A assessed as remaining activity using RRRFRPASPLRGPP as substrate by [gamma-32P]ATP binding based scintillation counting based analysis
Homo sapiens = organism: Homo sapiens; assay: Selectivity index, ratio of IC50 for inhibition of human full length recombinant DYRK1A to IC50 for inhibition of human 130-end recombinant CLK1
[5] = Metabolic stability in human liver microsomes assessed as half life at 10 uM incubated for 5 mins in the presence of NADPH-generating system by LC-MS/MS analysis; format: ADME, Microsome
[6] = biological target: Dual specificity protein kinase CLK1 (Mus musculus) (UniProt P22518); assay: Inhibition of Clk1 in mouse BNL CL.2 cells assessed as redistribution of serine/arginine (SR) proteins from nucleoplasmic (active form) to nuclear speckles (storage form) incubated for 24 hrs by immunofluorescence assay; format: cell-based; details: dose 1-10 µM
[7] = biological target: T1, Dual specificity protein kinase CLK1; assay: Binding affinity to Clk1 protein (unknown origin) assessed as inhibition of degradation in presence of 1:15 pronase to compound concentration
Target sequence in this assay (P49759 whole entry, looked up): as above

HeLa [8] = assay: Induction of autophagy in human HeLa cells assessed as increase in LC3II protein incubated for 24 hrs by Western blot analysis; format: functional, cell-based; details: dose 0.2-10 µM
HeLa [9] = assay: Induction of autophagy in human HeLa cells assessed as ratio of LC3II protein to LC3I incubated for 24 hrs by Western blot analysis; format: functional, cell-based; details: dose 0.2-10 nM
HeLa [10] = assay: Induction of autophagy in human HeLa cells assessed as increase in LC3II protein at 10 uM by Western blot analysis; format: functional, cell-based; details: time 3-24 hrs, TDE = time-dependent effect
HeLa [11] = assay: Induction of autophagy in human HeLa cells assessed as ratio of LC3II protein to LC3I at 10 uM by Western blot analysis; format: functional, cell-based; details: time 3-24 hrs, TDE = time-dependent effect
HeLa [12] = assay: Induction of autophagy in human HeLa cells assessed as degradation of SQSTM1/p62 at 10 uM incubated for 24 hrs by Western blot analysis; format: functional, cell-based
HeLa [13] = assay: Induction of autophagy in human HeLa cells infected with RFP-GFP-LC3 assessed as increased the number of yellow LC3 puncta at 10 uM after 24 hrs by confocal microscopy; format: functional, cell-based
[14] = Oral bioavailability in Balb/c mouse at 10 mg/kg measured upto24 hrs by LC/MS/MS analysis; format: ADME, organism-based; details: in vivo, time 24 hrs
[15] = Cmax in Balb/c mouse at 10 mg/kg, iv measured upto24 hrs by LC/MS/MS analysis; format: ADME, organism-based; design: time 24 hrs, dose 10 mg/kg, route iv; details: in vivo
[16] = Cmax in Balb/c mouse at 10 mg/kg, po measured upto24 hrs by LC/MS/MS analysis; format: ADME, organism-based; design: dose 10 mg/kg, time 24 hrs, route po; details: in vivo
[17] = Cmax in Balb/c mouse at 10 mg/kg, ip measured upto24 hrs by LC/MS/MS analysis; format: ADME, organism-based; design: dose 10 mg/kg, time 24 hrs, route ip; details: in vivo
[18] = Clearance in Balb/c mouse at 10 mg/kg, iv measured upto24 hrs by LC/MS/MS analysis; format: ADME, organism-based; details: in vivo, time 24 hrs
[19] = Clearance in Balb/c mouse at 10 mg/kg, po measured upto24 hrs by LC/MS/MS analysis; format: ADME, organism-based; details: in vivo, time 24 hrs
[20] = Clearance in Balb/c mouse at 10 mg/kg, ip measured upto24 hrs by LC/MS/MS analysis; format: ADME, organism-based; details: in vivo, time 24 hrs
[21] = Half life in Balb/c mouse at 10 mg/kg, iv measured upto24 hrs by LC/MS/MS analysis; format: ADME, organism-based; details: in vivo, time 24 hrs
[22] = Half life in Balb/c mouse at 10 mg/kg, po measured upto24 hrs by LC/MS/MS analysis; format: ADME, organism-based; details: in vivo, time 24 hrs
[23] = Half life in Balb/c mouse at 10 mg/kg, ip measured upto24 hrs by LC/MS/MS analysis; format: ADME, organism-based; details: in vivo, time 24 hrs
[24] = AUC (0 to t) in Balb/c mouse at 10 mg/kg, iv measured upto24 hrs by LC/MS/MS analysis; format: ADME, organism-based; design: time 24 hrs, dose 10 mg/kg, route iv; details: in vivo
[25] = AUC (0 to t) in Balb/c mouse at 10 mg/kg, po measured upto24 hrs by LC/MS/MS analysis; format: ADME, organism-based; design: dose 10 mg/kg, time 24 hrs, route po; details: in vivo
[26] = AUC (0 to t) in Balb/c mouse at 10 mg/kg, ip measured upto24 hrs by LC/MS/MS analysis; format: ADME, organism-based; design: time 24 hrs, dose 10 mg/kg, route ip; details: in vivo
Mus musculus [27] = assay: Protection against APAP-induced acute liver injury in ip dosed C57BL/6 mouse model assessed as volume of hepatocytes measured after 6 hrs by H and E staining method; format: functional, organism-based; details: dose 10-40 mg/kg
Mus musculus [28] = assay: Protection against APAP-induced acute liver injury in ip dosed C57BL/6 mouse model assessed as tiny vacuoles in hepatocyte cytoplasm measured after 6 hrs by H and E staining method; format: functional, organism-based; details: dose 10-40 mg/kg
Mus musculus [29] = assay: Protection against APAP-induced acute liver injury in ip dosed C57BL/6 mouse model assessed as necrotic hepatocytes measured after 6 hrs by H and E staining method; format: functional, organism-based; details: dose 10-40 mg/kg
Mus musculus [30] = assay: Protection against APAP-induced acute liver injury in ip dosed C57BL/6 mouse model assessed as decrease in body temperature measured after 6 hrs by H and E staining method; format: functional, organism-based; details: dose 10-40 mg/kg
Mus musculus [31] = assay: Protection against APAP-induced acute liver injury in ip dosed C57BL/6 mouse model assessed as decrease in serum ALT level measured after 6 hrs; format: functional, organism-based; details: dose 10-40 mg/kg
Mus musculus [32] = assay: Protection against APAP-induced acute liver injury in ip dosed C57BL/6 mouse model assessed as decrease in serum AST level measured after 6 hrs; format: functional, organism-based
[33] = Metabolic stability in human liver microsomes assessed as clearance at 10 uM incubated for 5 mins in the presence of NADPH-generating system by LC-MS/MS analysis; format: ADME, Microsome

Sequence of Dual specificity protein kinase CLK1 (Mus musculus) (P22518 whole entry, looked up): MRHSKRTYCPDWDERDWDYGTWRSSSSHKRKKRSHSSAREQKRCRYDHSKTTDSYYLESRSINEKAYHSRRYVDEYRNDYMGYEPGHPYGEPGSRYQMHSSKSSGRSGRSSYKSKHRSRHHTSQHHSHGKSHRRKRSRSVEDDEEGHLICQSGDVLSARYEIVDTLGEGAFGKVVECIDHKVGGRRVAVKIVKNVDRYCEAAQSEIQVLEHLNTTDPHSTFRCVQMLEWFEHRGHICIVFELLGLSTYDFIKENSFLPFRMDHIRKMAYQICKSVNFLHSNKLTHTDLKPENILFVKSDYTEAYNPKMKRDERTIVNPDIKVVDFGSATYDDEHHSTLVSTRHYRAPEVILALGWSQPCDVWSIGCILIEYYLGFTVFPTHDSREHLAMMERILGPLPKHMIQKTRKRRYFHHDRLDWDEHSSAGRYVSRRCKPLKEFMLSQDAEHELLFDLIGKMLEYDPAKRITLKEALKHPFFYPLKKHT

Activity [1]: 2% | Activity [2]: 72% | IC50 [3]: 5 nM | IC50 [4]: 1520 nM | Selectivity Index (Homo sapiens): 304 | half-life at 10 µM [5]: > 2 h | inhibition [6]: Dose-Dependent Effect | Activity [7]: Dose-Dependent Effect | bioavailability [14]: 19.5% | Cmax [15]: 13200 ng/mL | Cmax [16]: 1460 ng/mL | Cmax [17]: 4650 ng/mL | clearance [18]: 17.5 mL/min/kg | CL/F [19]: 91.8 mL/min/kg | CL/F [20]: 59.7 mL/min/kg | half-life [21]: 2.96 h | half-life [22]: 5.29 h | half-life [23]: 3.27 h | AUC(0-t) at 24 h [24]: 9520 ng·h/mL | AUC(0-t) at 24 h [25]: 1860 ng·h/mL | AUC(0-t) at 24 h [26]: 5010 ng·h/mL | CLH [33]: < 12 mL/min/g
Structure (SMILES): CN1CCN(c2ccc(C(=O)Nc3cnc4[nH]cc(-c5cncc(F)c5)c4c3)cc2)CC1
Activity (HeLa [8]): Dose-Dependent Effect | Activity (HeLa [9]): Dose-Dependent Effect | Activity (HeLa [10]): Tde | Activity (HeLa [11]): Tde | Activity (HeLa [12]): Active | Activity (HeLa [13]): Active | Activity (Mus musculus [27]): Dose-Dependent Effect | Activity (Mus musculus [28]): Dose-Dependent Effect | Activity (Mus musculus [29]): Dose-Dependent Effect | Activity (Mus musculus [30]): Dose-Dependent Effect | Activity (Mus musculus [31]): Dose-Dependent Effect | Activity (Mus musculus [32]): Dose-Dependent Effect
